# Test results: US11746116B2, “Antibiotic resistance breakers” (KING'S COLLEGE LONDON, priority 2017, dated 2023)
# Tested on: extended bacterial panel
# Experiment: MIC against an extended bacterial panel (Table 15)
# Assay type: cell-based
compound,measurement,setting,value
"Cc1cc(C)nc(N[C@@H]2CCN(c3c(F)cc4c(=O)c(C(=O)O)cn5c4c3OC[C@@H]5C)C2)n1 [KSN-BL7, (S)-10-((R)-3-((4,6-dimethylpyrimidin-2-yl)amino)pyrrolidin-1-yl)-9-fluoro-3-methyl-7-oxo-2,3-dihydro-7H-[1,4]oxazino[2,3,4-ij]quinoline-6-carboxylic acid]",MIC,"Staphylococcus aureus, MRSA / VISA, Staphylococcus aureus FDA-CDC AR-BANK# 0217",1 µg/mL
same,MIC,"Staphylococcus aureus, MRSA / VISA, Staphylococcus aureus FDA-CDC AR-BANK# 0218, MRSA/VISA Mupirocin-R",1 µg/mL
same,MIC,"Staphylococcus aureus, MRSA / VISA, Staphylococcus aureus FDA-CDC AR-BANK# 0219",4 µg/mL
same,MIC,"Staphylococcus aureus, MRSA / VISA, Staphylococcus aureus FDA-CDC AR-BANK# 0220",1 µg/mL
same,MIC,"Staphylococcus aureus, MRSA / VISA, Staphylococcus aureus FDA-CDC AR-BANK# 0221",0.5 µg/mL
same,MIC,"Staphylococcus aureus, MRSA / VISA, Staphylococcus aureus FDA-CDC AR-BANK# 0223",1 µg/mL
same,MIC,"Staphylococcus aureus, MRSA / VISA, Staphylococcus aureus FDA-CDC AR-BANK# 0224, MRSA/VISA Mupirocin-R",1 µg/mL
same,MIC,"Staphylococcus aureus, MRSA / VISA, Staphylococcus aureus FDA-CDC AR-BANK# 0225",1 µg/mL
same,MIC,"Staphylococcus aureus, MRSA / VISA, Staphylococcus aureus FDA-CDC AR-BANK# 0226",≤ 0.0312 µg/mL
same,MIC,"Staphylococcus aureus, MRSA / VISA, Staphylococcus aureus FDA-CDC AR-BANK# 0227",1 µg/mL
same,MIC,"Staphylococcus aureus, MRSA / VISA, Staphylococcus aureus FDA-CDC AR-BANK# 0228, MRSA/VISA Mupirocin-R",8 µg/mL
same,MIC,"Staphylococcus aureus, MRSA / VRSA, Staphylococcus aureus VRS1, VanA MRSA/VRSA",1 µg/mL
same,MIC,"Staphylococcus aureus, MRSA / VRSA, Staphylococcus aureus VRS2, VanA MRSA/VRSA",0.5 µg/mL
same,MIC,"Staphylococcus aureus, MRSA / VRSA, Staphylococcus aureus VRS3a, VanA MRSA/VRSA",0.5 µg/mL
same,MIC,"Staphylococcus aureus, MRSA / VRSA, Staphylococcus aureus VRS11b, VanA MRSA/VRSA",2 µg/mL
same,MIC,"Staphylococcus aureus, MRSA, Staphylococcus aureus ECL 2963621, MRSA DAP-NS",0.25 µg/mL
same,MIC,"Staphylococcus aureus, MRSA, Staphylococcus aureus ECL 2963666, MRSA DAP-NS",1 µg/mL
same,MIC,"Staphylococcus aureus, MRSA, Staphylococcus aureus ECL 2963667, MRSA DAP-NS",1 µg/mL
same,MIC,"Staphylococcus aureus, MRSA, Staphylococcus aureus ECL 2963743, MRSA DAP-NS",0.5 µg/mL
same,MIC,"Staphylococcus aureus, MRSA, Staphylococcus aureus R136",0.5 µg/mL
same,MIC,"Staphylococcus aureus, NRS 12 / VISA, Staphylococcus aureus NRS12, VISA",0.0625 µg/mL
same,MIC,"Staphylococcus aureus, NRS72, Staphylococcus aureus Sanger-476, NRS72",≤ 0.0312 µg/mL
same,MIC,"Staphylococcus aureus, NRS157, Staphylococcus aureus NRS157",≤ 0.0312 µg/mL
same,MIC,"Staphylococcus aureus, Staphylococcus aureus 6538P",≤ 0.0312 µg/mL
same,MIC,"Staphylococcus aureus, VISA, Staphylococcus aureus FDA-CDC AR-BANK# 0222",≤ 0.0312 µg/mL
same,MIC,"Staphylococcus aureus, VRSA, Staphylococcus aureus ECL 2963646",0.5 µg/mL
same,MIC,"Staphylococcus epidermidis, ATCC12228, Staphylococcus epidermidis ATCC 12228",≤ 0.0312 µg/mL
same,MIC,"Staphylococcus epidermidis, ATCC51625, Staphylococcus epidermidis CCF 15990, ATCC 51625",≤ 0.0312 µg/mL
same,MIC,"Staphylococcus epidermidis, NRS7, Staphylococcus epidermidis NRS7, VISE",0.5 µg/mL
same,MIC,"Staphylococcus epidermidis, NRS8, Staphylococcus epidermidis NRS8, VISE",1 µg/mL
same,MIC,"Staphylococcus epidermidis, NRS60, Staphylococcus epidermidis NRS60, VISE",0.0625 µg/mL
same,MIC,"Staphylococcus epidermidis, NRS101, Staphylococcus epidermidis NRS101",≤ 0.0312 µg/mL
same,MIC,"Staphylococcus haemolyticus, ATCC29970, Staphylococcus haemolyticus ATCC 29970",≤ 0.0312 µg/mL
same,MIC,"Staphylococcus intermedius, ATCC29663, Staphylococcus intermedius ATCC 29663",≤ 0.0312 µg/mL
same,MIC,"Staphylococcus saprophyticus, ATCC15305, Staphylococcus saprophyticus ATCC 15305",0.0625 µg/mL
same,MIC,Strepotococcus pyogenes ATCC 14289,0.125 µg/mL
same,MIC,Strepotococcus pyogenes ATCC 19615,0.125 µg/mL
same,MIC,"Streptococcus agalactiae, ATCC12386, Streptococcus agalactiae ATCC 12386",0.25 µg/mL
same,MIC,"Streptococcus mutans, ATCC25175, Streptococcus mutans ATCC 25175",≤ 0.0312 µg/mL
same,MIC,"Streptococcus oralis, ATCC9811, Streptococcus oralis ATCC 9811",0.25 µg/mL
same,MIC,"Streptococcus pneumoniae, ATCC6301, Streptococcus pneumoniae ATCC 6301",0.125 µg/mL
same,MIC,"Streptococcus pneumoniae, ATCC49619, Streptococcus pneumoniae ATCC 49619",0.125 µg/mL
same,MIC,"Streptococcus pneumoniae, ATCC51916, Streptococcus pneumoniae Tenessee 23F, ATCC 51916, MDR",0.125 µg/mL
same,MIC,"Streptococcus pneumoniae, ATCC700669, Streptococcus pneumoniae SP264, ATCC 700669, ST 23F",0.0625 µg/mL
same,MIC,"Streptococcus pneumoniae, ATCC700673, Streptococcus pneumoniae Hungary 19A, ATCC 700673, MDR",0.0625 µg/mL
same,MIC,"Streptococcus pneumoniae, ATCC700675, Streptococcus pneumoniae S. Africa 6B-8, ATCC 700675",0.0625 µg/mL
same,MIC,"Streptococcus pneumoniae, ATCC700676, Streptococcus pneumonia England ST14-9 ATCC 700676, ERY-R",0.125 µg/mL
same,MIC,"Streptococcus pneumoniae, ATCC 700677 / PRSP, Streptococcus pneumoniae CSR 14-10, ATCC 700677, PRSP",0.0625 µg/mL
same,MIC,"Streptococcus pneumoniae, PRSP, Streptococcus pneumoniae TM532",0.0625 µg/mL
same,MIC,"Streptococcus salivarius, ATCC13419, Streptococcus salivarius ATCC 13419",0.25 µg/mL
same,MIC,"Streptococcus sanguinis, ATCC10556, Streptococcus sanguinis ATCC 10556",0.25 µg/mL
